35 compounds from ChEMBL document CHEMBL3272312, “Proteinase inhibitors. I. Inhibitors of elastase” (J Med Chem, 1977) can be followed below.

Test [1] addresses T1, Pancreatic elastase (Sus scrofa) (UniProt P08419+P00772). Nature of the test: Inhibition of porcine pancreatic elastase assessed as Ac-Ala-Ala-Pro-Ala-p-nitroanilide conversion to p-nitroaniline by spectrophotometric analysis. Format: protein assay.
Another test deals with Pancreatic elastase (Sus scrofa, UniProt P08419+P00772). Nature of the test: Noncompetitive inhibition of porcine pancreatic elastase using Ac-Ala-Ala-Pro-Ala-p-nitroanilide as substrate by Dixon plot analysis. Format: protein assay.
In test [2] the target is T1, Pancreatic elastase (Sus scrofa). As to the kind of experiment: Activity at porcine pancreatic elastase assessed as compound hydrolysis at 1 mg incubated at room temperature up to 24 hrs by TLC analysis. In kind it is protein assay.
For test [3] the target is unchanged. As to the kind of experiment: Reversible inhibition of porcine pancreatic elastase assessed as enzyme recovery by sephadex G-25 rapid passage assay. In kind it is protein assay.
The target is the same in test [4]. Nature of the test: Reversible inhibition of porcine pancreatic elastase assessed as enzyme recovery. Format: protein assay.
For test [5] the target is unchanged. Nature of the test: Activity at porcine pancreatic elastase assessed as compound hydrolysis at 1 mg incubated at room temperature after 5 mins by TLC analysis. In kind it is protein assay.
Test [6] deals with T2, Neutrophil elastase (Homo sapiens) (UniProt P08246).
T2 sequence (whole entry): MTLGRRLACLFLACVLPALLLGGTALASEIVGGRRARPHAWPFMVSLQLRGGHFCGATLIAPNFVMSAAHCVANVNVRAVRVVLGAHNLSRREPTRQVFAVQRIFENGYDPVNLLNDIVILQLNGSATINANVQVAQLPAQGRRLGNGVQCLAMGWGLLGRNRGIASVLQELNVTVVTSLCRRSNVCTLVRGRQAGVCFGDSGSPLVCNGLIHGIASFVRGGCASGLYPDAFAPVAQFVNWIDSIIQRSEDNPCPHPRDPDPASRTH
Description: Inhibition of human granulocyte elastase assessed as Ac-Ala-Ala-Pro-Ala-p-nitroanilide conversion to p-nitroaniline by spectrophotometric analysis

Molecules are shown by their SMILES. ≈ marks a conversion by molar mass, not a printed value. Calls of active or inactive are those of the source. No cut-off for these calls is given here. *1 amine or outer side, *2 acyl side, *3 side chain or, on linkers, in order; H or OH if unused. Where a SMILES comes first, the peptide text is derived from it. [ ]: non-standard residue; d: D form. AzaAla = CN(N[*:1])C(=O)[*:2]; Lac = C[C@H](O)C(=O)O

Regarding `CCOC(=O)[C@H](C)OC(=O)N(C)NC(=O)[C@H](CC(C)C)NC(=O)[C@H](C)NC(=O)[C@@H]1CCCN1C(C)=O`, the ID50 in test [1] turned out to be 15 µg/mL (≈ 29.2 µM).

Consider `CCOC(=O)N(C)NC(=O)[C@@H]1CCCN1C(=O)[C@H](C)NC(=O)[C@H](C)NC(=O)OC(C)(C)C`, for which the ID50 in test [1] amounted to 90 µg/mL (≈ 197 µM).

`CCOC(=O)[C@H](C)OC(=O)N(C)NC(=O)[C@H](CC(C)C)NC(=O)[C@H](C)NC(=O)[C@H](C)NC(C)=O`: the ID50 in test [1] worked out at 9 µg/mL (≈ 18.5 µM).

On to `CCOC(=O)[C@H](C)OC(=O)N(C)NC(C)=O`, for which the inhibition result in test [1] is “inactive”.

`CC(=O)N[C@@H](C)C(=O)N[C@@H](C)C(=O)N1CCC[C@H]1C(=O)NN(C)C(=O)O[C@@H](C)C(=O)NN`: on Pancreatic elastase, the Ki was 6.5 ×10⁻⁷ M. For the same compound, the ID50 in test [1] was 0.25 µg/mL (≈ 0.546 µM).

Consider `CCOC(=O)N(C)NC(=O)[C@@H]1CCCN1C(=O)[C@H](C)NC(=O)[C@@H]1CCCN1C(C)=O`, for which the ID50 in test [1] was determined as 60 µg/mL (≈ 141 µM).

With `CCOC(=O)[C@H](C)OC(=O)[C@H](C)OC(=O)[C@@H]1CCCN1C(=O)[C@H](C)NC(=O)[C@H](C)NC(C)=O` (Ac-AAP[Lac][Lac]-OEt), the ID50 in test [1] worked out at 33 µg/mL (≈ 70 µM).

Consider `CCOC(=O)[C@H](C)OC(=O)N(C)NC(=O)[C@@H]1CCCN1C(=O)[C@H](C)NC(=O)[C@@H]1CCCN1C(C)=O`, for which the ID50 in test [1] was found to be 6 µg/mL (≈ 12.1 µM).

With `CCOC(=O)N(C)NC(=O)[C@@H]1CCCN1C(=O)[C@H](C)NC(=O)[C@H](C)NC(C)=O`, the ID50 in test [1] was 20 µg/mL (≈ 50.1 µM).

For the compound `CCOC(=O)[C@H](C)NC(=O)N(C)NC(=O)[C@@H]1CCCN1C(=O)[C@H](C)NC(=O)[C@H](C)NC(C)=O` (Ac-AAP[AzaAla]A-OEt), the ID50 in test [1] stood at 100 µg/mL (≈ 213 µM).

Take `CNC(=O)[C@H](C)OC(=O)N(C)NC(=O)[C@@H]1CCCN1C(=O)[C@H](C)NC(=O)[C@H](C)NC(C)=O`: the Ki at Pancreatic elastase worked out at 6.5 ×10⁻⁷ M. Further, the ID50 in test [1] was 0.4 µg/mL (≈ 0.876 µM).

Turning to `CC(=O)N[C@@H](C)C(=O)N[C@@H](C)C(=O)N1CCC[C@H]1C(=O)NN(C)C(=O)O[C@@H](C)C(=O)OCc1ccccc1`, in test [1], the ID50 was 0.5 µg/mL (≈ 0.937 µM).

As to `CC(=O)N[C@@H](C)C(=O)N[C@@H](C)C(=O)N1CCC[C@H]1C(=O)NN(C)C(=O)O[C@@H](C)C(N)=O`, the Ki on Pancreatic elastase amounted to 5 ×10⁻⁷ M. The ID50 in test [1] was determined as 0.4 µg/mL (≈ 0.904 µM).

On to `CCOC(=O)C(C)OC(=O)N(C)NC(=O)[C@@H]1CCCN1C(=O)[C@H](C)NC(=O)[C@@H]1CCCN1C(C)=O` (stereo partly drawn), for which the ID50 in test [1] stood at 4.5 µg/mL (≈ 9.04 µM).

On to `CCOC(=O)[C@H](C)OC(=O)[C@H](C)OC(=O)[C@@H]1CCCN1C(=O)[C@H](C)NC(=O)[C@@H]1CCCN1C(C)=O` (Ac-PAP[Lac][Lac]-OEt), for which the ID50 in test [1] amounted to 167 µg/mL (≈ 336 µM).

Turning to `CC(=O)N[C@@H](C)C(=O)N[C@@H](C)C(=O)N1CCC[C@H]1C(=O)NN(C)C(=O)O[C@@H](C)C(=O)NCc1ccccc1`, the Ki on Pancreatic elastase turned out to be 8.5 ×10⁻⁷ M. The ID50 in test [1] is 0.3 µg/mL (≈ 0.563 µM).

`CCOC(=O)[C@H](Cc1ccccc1)NC(=O)[C@H](C)OC(=O)N(C)NC(=O)[C@@H]1CCCN1C(=O)[C@H](C)NC(=O)[C@H](C)NC(C)=O`: the ID50 in test [1] came out at 2 µg/mL (≈ 3.23 µM).

As to `CCOC(=O)[C@H](Cc1ccccc1)OC(=O)N(C)NC(=O)[C@@H]1CCCN1C(=O)[C@H](C)NC(=O)[C@H](C)NC(C)=O`, in test [1], the ID50 was determined as 2 µg/mL (≈ 3.65 µM).

`CCOC(=O)N(C)NC(=O)[C@H](C)NC(C)=O`: in test [1], the inhibition entry was “inactive”.

As to `CCOC(=O)NNC(=O)[C@@H]1CCCN1C(=O)[C@H](C)NC(=O)[C@H](C)NC(=O)OC(C)(C)C`, the inhibition entry in test [1] was “inactive”.

With `C[C@H](NC(=O)OCc1ccccc1)C(=O)N[C@@H](C)C(=O)N1CCC[C@H]1C(=O)NN(C)C(=O)Oc1ccc([N+](=O)[O-])cc1`, the ID50 in test [1] amounted to 1 µg/mL (≈ 1.71 µM).

Turning to `CC(=O)N[C@@H](C)C(=O)N[C@@H](C)C(=O)N1CCC[C@H]1C(=O)NN(C)C(=O)O[C@@H](C)C(=O)O`, the ID50 in test [1] worked out at 110 µg/mL (≈ 248 µM).

As to `CCOC(=O)[C@H](C)OC(=O)N(C)NC(=O)[C@@H]1CCCN1C(=O)[C@H](C)NC(=O)[C@H](C)NC(C)=O`, the outcome in test [2] was inactive. Also, the ID50 in test [1] stood at 1 µg/mL (≈ 2.12 µM).

With `CC(=O)N1CCC[C@H]1C(=O)N[C@@H](C)C(=O)N1CCC[C@H]1C(=O)NN(C)C(=O)OC(C)C(N)=O` (mixture of isomers), the outcome in test [2] was inactive. The Ki at Pancreatic elastase was found to be 4.5 ×10⁻⁷ M. Further, in test [3], the inhibition result was “Active”. The inhibition result in test [4] was “inactive”. For the same compound, the ID50 in test [1] came out at 0.3 µg/mL.

`CCOC(=O)[C@H](C)OC(=O)[C@H](C)OC(=O)N(C)NC(=O)[C@@H]1CCCN1C(=O)[C@H](C)NC(=O)[C@H](C)NC(C)=O`: the ID50 in test [1] amounted to 1.5 µg/mL (≈ 2.76 µM).

For the compound `CCOC(=O)NNC(=O)[C@@H]1CCCN1C(=O)[C@H](C)NC(=O)[C@H](C)NC(C)=O`, the inhibition entry in test [1] was “inactive”.

Consider `CCOC(=O)[C@H](C)OC(=O)N(C)NC(=O)[C@H](C)NC(C)=O`, for which the inhibition result in test [1] is “inactive”.

Regarding `CCOC(=O)[C@H](C)OC(=O)[C@H](C)NC(=O)[C@@H]1CCCN1C(=O)[C@H](C)NC(=O)[C@@H]1CCCN1C(C)=O` (Ac-PAPA[Lac]-OEt), in test [1], the inhibition result is “inactive”. Also, in test [5], the outcome was Active.

Regarding `CCOC(=O)[C@H](C)OC(=O)[C@H](C)OC(=O)N(C)NC(=O)[C@@H]1CCCN1C(=O)[C@H](C)NC(=O)[C@@H]1CCCN1C(C)=O`, in test [1], the ID50 came out at 1.5 µg/mL (≈ 2.63 µM).

As to `CC(=O)N[C@@H](C)C(=O)N[C@@H](C)C(=O)N1CCC[C@H]1C(=O)NN(C)C(=O)O[C@@H](C)C(=O)N(C)N`, the ID50 was 50 µg/mL (≈ 106 µM) in test [6] and 2 µg/mL (≈ 4.24 µM) in test [1].

In the case of `CCOC(=O)N(C)NC(=O)[C@@H]1CCCN1C(=O)[C@H](C)NC(=O)[C@H](C)NC(=O)OCc1ccccc1`, the ID50 in test [1] is 30 µg/mL (≈ 61 µM).

Regarding `CCOC(=O)NNC(=O)[C@@H]1CCCN1C(=O)[C@H](C)NC(=O)[C@@H]1CCCN1C(C)=O`, the inhibition result in test [1] was “inactive”.

For the compound `CCOC(=O)[C@H](C)OC(=O)[C@H](C)NC(=O)[C@@H]1CCCN1C(=O)[C@H](C)NC(=O)[C@H](C)NC(C)=O` (Ac-AAPA[Lac]-OEt), the ID50 in test [1] was 167 µg/mL (≈ 355 µM). In test [5], the outcome was Active.

On Pancreatic elastase, `CC(=O)N[C@@H](C)C(=O)N[C@@H](C)C(=O)N1CCC[C@H]1C(=O)NN(C)C(=O)O[C@@H](C)C(=O)Nc1ccccc1` gave a Ki of 4.5 ×10⁻⁷ M. In addition, in test [1], the ID50 turned out to be 0.4 µg/mL (≈ 0.771 µM).

As to `CCOC(=O)[C@H](C)NC(=O)N(C)NC(=O)[C@@H]1CCCN1C(=O)[C@H](C)NC(=O)[C@@H]1CCCN1C(C)=O` (Ac-PAP[AzaAla]A-OEt), the inhibition entry in test [1] is “inactive”.
